According to patent US20150148387A1, “METHODS OF TREATMENT, DIAGNOSIS AND […] METHA[…] WHICH TARGET CERAMIDE METABOLIC […] AND […] SENESCENCE” (priority 2012, published 2015):
“Also recorded” adds a separate entry of the source. Read-outs that look alike come from different tables or passages of the source.

How the values were obtained:
[1] = tested on: primary mouse embryonic fibroblasts (MEF); format: cell-based; settings: for SA-β-gal expression induced by methamphetamine: methamphetamine 1 mM; for amphetamine-induced inflammation and senescence: measured by beta-galactosidase assay, crystal violet morphology, and gene expression of pro-inflammatory and pro-senescence genes
Description: Detection of senescence-associated β-galactosidase staining was performed as previously reported. Briefly, we plated MEFs on Lab-Tek chamber slides at a density of 5×10^4 cells per chamber. Next day, cells were treated with the indicated dose of drug for 48 hours. Cells were washed twice with PBS and fixed in 2% formaldehyde/0.2% glutaraldehyde for five minutes at room temperature. After two PBS washes the slides were incubated with fresh β-galactosidase stain solution (1 mg/mL 5-bromo-4-chloro-3-indoyl β-D-galactoside (X-Gal) 40 mM sodium phosphate, pH 6.0, 5 mM potassium ferrocyanide, 5 mM potassium ferricyanide, 150 mM NaCl, and 2 mM MgCl2) at 37° C. for 12-16 hours. Slides were washed with PBS and mounted with DAPI containing media. Images were taken for the β-gal staining and overlapped with fluorescent images taken of the same region to count the number of cells staining positive for β-gal (Nikon Eclipse E600). More than 200 cells from 5 different regions of a slide were counted in a blind fashion.

[2] = tested on: primary mouse embryonic fibroblasts (MEF); format: cell-based; settings: for ceramide (d18:1/16:0) content: incubation of MEF with the drug alone
Description: (§1) Cells were washed with ice-cold phosphate-buffered saline (PBS) and scraped into 0.5 ml of methanol/water (1:1, vol:vol) containing the internal standards listed below. Protein concentrations were measured using the BCA protein assay (Pierce, Rockford, Ill., USA). Lipids were extracted with chloroform/methanol (2:1, vol:vol; 1.0 mL). The organic phases were collected, dried under nitrogen and dissolved in methanol for LC/MS analyses.
(§2) Helium was used as collision gas. […] Mobile phase composition was as described above.
(§3) Mouse embryonic fibroblasts (MEFs) were prepared from mice embryo as previously reported. Briefly, pregnant mice at day 13 post coitum were sacrificed and the uteri were dissected out. Each embryo was separated from the placenta and the head and visceral tissues were removed. The remaining body was minced in PBS and incubated with 0.1 mM trypsin/1 mM EDTA at 37° C. for 15 min. Two volumes of Dulbecco's Modified Eagle Medium (DMEM) containing 10% fetal bovine serum (FBS) was added and stood for 5 minutes to settle down large pieces of unbroken tissues. The supernatant was then removed and centrifuged at 200×g for 5 min and suspended in fresh DMEM containing 10% FBS. Cells were cultured at 37° C. with 5% CO2.

[3] = Methamphetamine self-administration in rats: self-administration, body weight, body temperature, food intake; format: in vivo, rat
Description: Each experimental group was divided into two subgroups that were tested simultaneously. One subgroup served as yoked controls and passively received an injection of saline (which was not contingent on responding) each time a response-contingent injection of 0.1 mg/kg methamphetamine was actively self-administered by the first subgroup of rats. […] The first experimental groups consisted of 12 rats self-administering methamphetamine and 6 yoked control rats. The second experimental group consisted of 9 rats self-administering methamphetamine and 9 yoked control rats. The third experimental group consisted of 16 rats self-administering methamphetamine and 8 yoked control rats. […] The pretreatment with L-CS was always given immediately before and after each session and the catheter was flushed with 0.5 ml of saline afterwards. Before and after sessions 4 and 5 animals received dose 10 mg/kg of L-CS and before and after sessions 6, 7, and 8 they received dose 20 mg/kg of L-CS. The animals received total dose 160 mg/kg of L-CS during the experiment. In this group, we also measured three times the rectal temperature. The first measurement was done one the day before the experiment began at 2 pm, the second measurement was done at 2 pm before the eighth session, and the third measurement immediately after the eighth session.
Eight consecutive 15-hour sessions were conducted between 4 p.m. and 8 a.m. Rats and the food in the feeders were weighed before the start of each session. At the start of each session, a white house light was turned on and a priming injection of 0.1 mg/kg methamphetamine (or saline for yoked group), sufficient to fill the “dead” space of the IV catheter, was automatically delivered. Rats learned to self-administer methamphetamine under one-response, fixed ratio schedule (FRI) of i.v. methamphetamine injection with 30-s time-out duration. Each nose-poke response in the active hole (FRI) produced a delivery of an i.v. injection of 0.1 mg/kg of methamphetamine followed by 30-s timeout period, during which the chamber was dark and responses in either hole had no programmed consequences.

[4] = tested on: primary mouse embryonic fibroblasts (MEF); experiment: Gene expression in MEF; format: cell-based; settings: MEF; co-administration with methamphetamine
Description: Total RNA was extracted from frozen tissues using TRIzol reagent (Invitrogen, Carlsbad, Calif.) and was purified with the RNeasy mini kit (Qiagen, Valencia, Calif.). First-strand complementary DNAs were synthesized using SuperScript II RNaseH reverse transcriptase (Invitrogen). Reverse transcription of total RNA (2 μg) was carried out using oligo(dT)12-18 primers for 50 min at 42° C. mRNA levels were measured by quantitative real-time polymerase chain reaction (RT-PCR) with a Mx 3000P system (Stratagene, La Jolla, Calif.). The following list of primers and fluorogenic probes purchased from Applied Biosystems (TaqMan Gene Expression Assays, Foster City, Calif.): Ceramide Synthase 1 (Rn01420081_m1), Ceramide Synthase 2 (Rn01762789_m1), Ceramide Synthase 4 (Rn01767402_m1), Ceramide Synthase 5 (Rn01532864_m1), Ceramide Synthase 6 (Rn01270930_m1), Interleukin-6 (Rn01410330_m1). mRNA levels were normalized using beta actin, 18S ribosomal protein or glyceraldehyde-3-phosphate dehydrogenase as internal standards. Additional PCR primers were designed using Primer 3 (https://www.Frodo.wit.mit.edu), and the sequences are shown in S.Table XXX.
as §3

[5] = tested on: ceramide content and IL-6 and p21 mRNA; experiment: Acute experiment in mice: methamphetamine alone or in combination with L-CS; settings: methamphetamine in combination with L-CS
[6] = tested on: isolated mitochondria from primary MEF; experiment: Lipid analysis of isolated mitochondria from MEF; format: cell-based, mouse; settings: isolated mitochondria from primary MEF; inhibitor 30 μM
Description: as §1, §2, §3

[7] = tested on: de novo ceramide biosynthesis; experiment: Methamphetamine self-administration in rats: lipidomic analysis of tissues by LC/MS; settings: 8 days self-administration; L-CS i.v. from 4 days into the study (10 then 20 mg/kg before and after sessions)
Description: Male Sprague-Dawley rats (Charles River, Wilmington, Mass.), weighing approximately 360-440 g at the beginning of the self-administration experiment, were individually housed in a temperature- and humidity-controlled environment under a reversed lighting 12-h light/dark cycle (lights on at 7:00 p.m.). The rats were allowed free access to food (NIH07 biscuits) in their home cage throughout the study. Water was available ad libitum in the home cage and in the testing chamber. Rats were tested in the light phase. They were experimentally and drug naïve at the beginning of this study.
Each of eighteen standard operant-conditioning chambers (Coulbourn Instruments, Lehigh Valley, Pa.) contained a white house light and two holes with nose-poke operanda on either side of a food trough. Upon activation, each nose poke produced a brief feedback tone. […] The tubing was attached to a syringe pump (Harvard Apparatus, South Natick, Mass.), which was programmed to deliver 2-s injections. The injected volume was adjusted for every animal to deliver a methamphetamine dose of 0.1 mg/kg/injection. Experimental events were controlled by microcomputers using MED Associates interfaces and software (Med Associates Inc., East Fairfield, Vt.).
Silastic catheter was implanted into the external jugular vein under anesthesia with a mixture of ketamine and xylazine (60 and 10 mg/kg i.p., respectively). Catheter exited the skin behind the ear. After catheter implantation, a nylon bolt glued to an acrylic mesh was implanted subcutaneously in the midscapular region. The nylon bolt served as a tether, preventing the catheter from being pulled out during self-administration sessions. Following surgery, the IV catheter was flushed daily during the first week with 0.2-0.3 ml of solution containing cephalosporin (100 mg/ml; Cefazolin For Injection, USP; Hospira Inc., Lake Forest, Ill., USA) and then flushed before and after each daily session with saline to maintain its patency) and then flushed after each daily session with saline to maintain its patency.
Each experimental group was divided into two subgroups that were tested simultaneously. One subgroup served as yoked controls and passively received an injection of saline (which was not contingent on responding) each time a response-contingent injection of 0.1 mg/kg methamphetamine was actively self-administered by the first subgroup of rats. […] The first experimental groups consisted of 12 rats self-administering methamphetamine and 6 yoked control rats. The second experimental group consisted of 9 rats self-administering methamphetamine and 9 yoked control rats. The third experimental group consisted of 16 rats self-administering methamphetamine and 8 yoked control rats. […] The pretreatment with L-CS was always given immediately before and after each session and the catheter was flushed with 0.5 ml of saline afterwards. Before and after sessions 4 and 5 animals received dose 10 mg/kg of L-CS and before and after sessions 6, 7, and 8 they received dose 20 mg/kg of L-CS. The animals received total dose 160 mg/kg of L-CS during the experiment.
Eight consecutive 15-hour sessions were conducted between 4 p.m. and 8 a.m. Rats and the food in the feeders were weighed before the start of each session. At the start of each session, a white house light was turned on and a priming injection of 0.1 mg/kg methamphetamine (or saline for yoked group), sufficient to fill the “dead” space of the IV catheter, was automatically delivered. Rats learned to self-administer methamphetamine under one-response, fixed ratio schedule (FRI) of i.v. methamphetamine injection with 30-s time-out duration.

[8] = tested on: primary mouse embryonic fibroblasts (MEF); experiment: ROS production in MEF (CM-H2DCFDA); format: cell-based; settings: CYP inhibitors with methamphetamine
Description: Production of ROS was measured using the fluorescent probe CM-H2DCFDA (Invitrogen). This carboxy derivative of fluorescein carries additional negative charges that improve its retention compared to noncarboxylated forms. For these experiments, MEFs were grown in DMEM without phenol red, for which anti-oxidative properties have been reported. Cells were plated to subconfluence in 12-well plates, washed 3 times with pre-warmed PBS and loaded for 30 min at 37° C./5% CO2 with […] CM-H2DCFDA in DMEM without phenol red (loading medium). Then the loading medium was removed and pre-warmed fresh medium containing the different CYP450 inhibitors in presence or absence of methamphetamine was added. Fluorescence (excitation at 485 nm, emission at 530 nm) was analyzed immediately, cells were incubated at 37° C./5% CO2, and fluorescence was analyzed at the indicated time points. ROS rate versus control (%) was calculated subtracting the percentage of ROS increasing from time zero in the methamphetamine-treated samples to the percentage of ROS increasing from time zero in vehicle-treated samples.

CCCC[C@@H](C)[C@@H](OC(=O)C[C@@H](CC(=O)O)C(=O)O)[C@H](C[C@@H](C)C[C@H](O)CCCC[C@@H](O)C[C@H](O)[C@H](C)N)OC(=O)C[C@@H](CC(=O)O)C(=O)O [Fumonisin B1]
expression of SA-β-gal by the cell-permeable ceramide analog C8 ([1]; C8 in presence of L-CS or FB1): neither L-CS nor FB1 blocked | SA-β-gal expression induced by methamphetamine ([1]; inhibitor 50 μM): suppressed

CCCCc1ccc(N=CNO)c(C)c1 [HET-0016]
ceramide formation in D-meth-treated cells ([2]; MEF, inhibitors each at 10 μM): ineffective

N[C@H]1CONC1=O [L-cycloserine]
expression of SA-β-gal by the cell-permeable ceramide analog C8 [1]: neither L-CS nor FB1 blocked | amphetamine-induced inflammation and senescence [1]: prevent | SA-β-gal expression induced by methamphetamine ([1]; inhibitor 30 μM): suppressed | methamphetamine-induced reduction of food intake ([3]; L-CS treatment): did not alter | meth induced changes in body temperature ([3]; L-CS treatment, listed as L-CS): did not alter | methamphetamine self-administration ([3]; L-CS treatment, listed as L-CS): no effect; also recorded: did not alter | body weight (wasting phenotype) ([3]; methamphetamine self-administering animals treated with L-CS, listed as L-CS): able to rescue the wasting phenotype; also recorded: corrected the abnormalities in body weight | methamphetamine-induced increase in the transcription of IL-6, TNF-alpha, p21 and p53 [4]: blocked | methamphetamine-induced increase of ceramide [5]: block the increase | methamphetamine induced increases in ceramide [6]: able to block | methamphetamine induced increases in ceramide ([2]; primary MEF, inhibitor 30 μM): able to block | methamphetamine induced increases in ceramide content [7]: blocked

CN[C@@H](C)Cc1ccccc1.Cl [L-methamphetamine, L-methamphetamine hydrochloride]
ceramide (d18:1/16:0) content [2]: no such effect

CCCC(C(=O)OCCN(CC)CC)(c1ccccc1)c1ccccc1 [SKF-525A]
ceramide formation in D-meth-treated cells ([2]; MEF, inhibitors each at 10 μM): normalized | release of ROS evoked by methamphetamine [8]: prevented

CN/C(=N/CCSCc1nc[nH]c1C)NC#N [cimetidine]
ceramide formation in D-meth-treated cells [2]: normalized | release of ROS evoked by methamphetamine [8]: prevented

C[C@H](N)Cc1ccccc1 [d-amphetamine]
ceramide (d18:1/16:0) content [2]: modest but statistically significant (p<0.014) increase

C=C[C@H]1C[N@@]2CC[C@H]1C[C@@H]2[C@@H](O)c1ccnc2ccc(OC)cc12 [quinidine]
ceramide formation in D-meth-treated cells ([2]; MEF, inhibitors each at 10 μM): normalized | release of ROS evoked by methamphetamine [8]: prevented

O=C1CCC(N2C(=O)c3ccccc3C2=O)C(=O)N1 (stereo not shown) [thalidomide]
amphetamine-induced inflammation and senescence [1]: prevent

TNF-α
cellular ceramide content ([2]; MEF, TNF-α treatment activating NF-κB): mimic the effects of methamphetamine
